Values after ≈ are worked out from the molar mass of the structure shown.
Legend:
[1] = test system: Leishmania donovani amastigotes; assay: ROS generation in treated amastigotes (H2DCFDA); type: cell-based; details: 100, 50 or 25 μM, 24 hrs
Protocol: (§1) The degree of reactive oxygen species (ROS) production in treated promastigote and amastigote cells of L. donovani were assessed using the H2DCFDA (2’,7’-dichlorodihydrofluorescein diacetate) rich fluorescent dye (MAK145 Sigma-Aldrich) ROS detection kit. […] Amoxicillin was used as a positive control for pro-oxidative generation while Vitamin C was used as a positive control for anti-oxidative potential. The treated and untreated cells were then suspended in PBS, washed, and resuspended in PBS, then incubated with the ROS detection master mix for 1 hr as instructed by the protocol. The cells were analyzed for intracellular ROS generation by measuring the fluorescence intensity which is proportional to the ROS production level using the Varioskan Lux Elisa microplate reader (Thermo Fischer Scientific, USA) at a wavelength of 605 nm.

[2] = test system: Leishmania donovani promastigotes; assay: ROS generation in treated promastigotes (H2DCFDA); type: cell-based; details: 100, 50 or 25 μM, 72 hrs
Protocol: as §1

[3] = test system: Leishmania donovani promastigotes; assay: Antileishmanial activity against promastigotes (MTT assay); type: cell-based; details: for IC50 (μg/ml) ±SD promastigote / IC50: 96 hrs at 25° C, MTT, mean of three experiments; for Therapeutic Index (TC50/IC50) promastigotes: TC50 RAW / IC50 promastigote; for IC50: Leishmania donovani, read-out: IC50 (μg/ml) ±SD promastigote
From the text: Amphotericin B was used as a positive control. The 3-(4,5-Dimethylthiazol-2-yl)-2,5-diphenyltetrazolium bromide (MTT) assay was used to determine the parasite viability as previously described.

[4] = test system: RAW 264.7 murine macrophage cell line; assay: Cytotoxicity against mammalian RAW macrophage cell line (MTT assay); details: 48 hrs, 50% cytotoxic concentration
From the text: Here, amphotericin B was used as a positive control and the negative control was untreated RAW cell line.

[5] = test system: Leishmania donovani amastigotes in RAW macrophage cells; assay: Antileishmanial activity against macrophage-amastigotes (MTT assay); type: cell-based; details: for Therapeutic Index (TC50/IC50) amastigotes: TC50 RAW / IC50 amastigote; for IC50 (μg/ml) ±SD amastigote / IC50: amastigotes in RAW macrophages, MTT; for IC50: Leishmania donovani, Macrophage, read-out: IC50 (μg/ml) ±SD amastigote
Protocol: The RAW macrophage cells were infected with promastigotes at a density of 1:10 ratio, respectively for 12 hrs and the non-phagocytosed promastigotes and media removed by aspiration. The RAW macrophages cells containing the internalized amastigote cells were treated with the compounds to test for their growth inhibitory potentials as previously described. The 3-(4,5-Dimethylthiazol-2-yl)-2,5-diphenyltetrazolium bromide (MTT) assay was also used to determine the parasite viability. […] was measured with a Varioskan Lux Elisa plate reader at a wavelength of 570 nm.

O+ human red blood cells = assay: Haemolytic potential; details: 2% haematocrit, up to 100 μg/ml
Protocol: The compounds were tested against the O^+ human red blood cells (obtained from the Malaria laboratory of WACCBIP) at a density of 2% haematocrit for their ability to lyse erythrocytes upon incubation. Here, a concentration of up to 100 μg/ml of compounds was used, and the 50% haemolytic concentration (HC50) of the compounds were determined by analysis of dose-response curves as described.

[6] = test system: Leishmania donovani promastigotes; assay: Morphological and mitochondrion effects by fluorescence microscopy (DAPI, MitoTracker); type: cell-based; details: for morphological / mitochondrial changes after 72 hrs: 2x IC50, 72 hrs
Protocol: Their mitochondrial integrity were analyzed using a slightly modified DAPI and Mitotracker dye protocol as described by Amisigo and colleagues.

[7] = test system: Leishmania donovani promastigotes; assay: Growth kinetics and cytocidal/cytostatic (growth reversibility) assay; type: cell-based; details: 1 μg/ml, 120 hrs treatment, then 96 hrs in fresh media
Protocol: The compounds (at 1 μg/ml) were tested for their effects on the growth kinetic pattern against the promastigotes of L. donovani. The parasite cells (2 x 10^5 cells/ml) were incubated at 25° C in the presence of the test compounds in M199 supplemented with 10% FBS. Amphotericin B treated parasites (0–50 μg/ml) were used as the positive control while the untreated promastigotes in medium alone served as the negative control. Viable cells were counted every 24 hrs for a total of 120 hrs as indicated in previous studies.
The cytocidal/cytostatic effect of the test compounds were assessed by analyzing the treated and untreated parasites after 120 hrs of incubation. Cells were washed twice with fresh M199, resuspended in complete M199 media and incubated further for 96 hrs. The viable cells were then counted microscopically.

| Structure (SMILES) | ROS generation effect in amastigotes [1] | ROS generation effect in promastigotes [2] | IC50 (μg/ml) ±SD promastigote [3] | Therapeutic Index (TC50/IC50) promastigotes [3] | TC50 (μg/ml) ±SD RAW [4] | Therapeutic Index (TC50/IC50) amastigotes [5] | IC50 (μg/ml) ±SD amastigote [5] | HC50 (O+ human red blood cells) | IC50 [3] | cells with slight enlargement of nuclear and kinetoplast DNA ([6]; 2x IC50, 24 hrs) | morphological / mitochondrial changes after 72 hrs [6] | IC50 [5] | cytocidal/cytostatic effect upon drug withdrawal [7] | morphological / mitochondrial changes after 24 hrs ([6]; 2x IC50, 24 hrs) |
| --- | --- | --- | --- | --- | --- | --- | --- | --- | --- | --- | --- | --- | --- | --- |
| CC1(C)S[C@@H]2[C@H](NC(=O)[C@H](N)c3ccc(O)cc3)C(=O)N2[C@H]1C(=O)O [Amoxicillin, reference compound] | pro-oxidative effect | pro-oxidative action |  |  |  |  |  |  |  |  |  |  |  |  |
| C[C@@H]1[C@H](O)[C@@H](C)/C=C/C=C/C=C/C=C/C=C/C=C/C=C/[C@H](O[C@@H]2O[C@H](C)[C@@H](O)[C@H](N)[C@@H]2O)C[C@@H]2O[C@](O)(C[C@@H](O)C[C@@H](O)[C@H](O)CC[C@@H](O)C[C@@H](O)CC(=O)O[C@H]1C)C[C@H](O)[C@H]2C(=O)O [Amphotericin B, reference compound] | anti-oxidative effect | anti-oxidative effect |  |  |  |  |  |  |  |  |  |  |  |  |
| O=C(Nc1ccc2c(c1)B(O)OC2)c1ccccc1C(F)(F)F [Compound A03B] | anti-oxidative effect | anti-oxidative effect | 0.44 ± 0.200 µg/mL (≈ 1.37 µM) | 0.41 | 0.18 ± 0.050 µg/mL (≈ 0.561 µM) | 0.90 | 0.20 ± 0.030 µg/mL (≈ 0.623 µM) | >100 µg/mL |  |  |  |  |  |  |
| O=C(NCc1nnc2n1CCCCC2)c1ccc(-c2ccc(F)cc2)o1 [Compound A06A] |  | anti-oxidative effect |  | 2.05 | 0.39 ± 0.05 µg/mL (≈ 1.1 µM) | 1.03 |  | >100 µg/mL | 0.19 ± 0.008 µg/mL (≈ 0.536 µM) | 50% | most of the few cells left lost their kinetoplast DNA | 0.38 ± 0.01 µg/mL (≈ 1.07 µM) |  |  |
| Clc1cccc(CO[C@H]2CCc3ccccc3[C@@H]2n2ccnn2)c1 [Compound A07E] |  |  | >6.25 µg/mL | 0.07 | 0.41 ± 0.020 µg/mL (≈ 1.21 µM) | 0.07 | >6.25 µg/mL | >100 µg/mL |  |  |  |  |  |  |
| Cc1ncc(-c2ccnc(Nc3ccc(S(C)(=O)=O)cc3)n2)n1C(C)C [Compound B03B] | anti-oxidative effect | pro-oxidative action | 0.20 ± 0.040 µg/mL (≈ 0.538 µM) | 1.25 | 0.25 ± 0.040 µg/mL (≈ 0.673 µM) | 0.63 | 0.40 ± 0.050 µg/mL (≈ 1.08 µM) | >100 µg/mL |  |  |  |  | cytocidal effect |  |
| COc1ccc(C2=NN(C3CCCCCC3)C(=O)[C@@H]3CC=CC[C@H]23)cc1OCCCCOc1ccc(-c2nn[nH]n2)cc1 [Compound C02B] | anti-oxidative effect |  | 0.15 ± 0.130 µg/mL (≈ 0.257 µM) | 2.53 | 0.38 ± 0.010 µg/mL (≈ 0.65 µM) | 2.92 | 0.13 ± 0.004 µg/mL (≈ 0.222 µM) | >100 µg/mL |  |  |  |  |  |  |
| CO[C@@H](C(=O)N1Cc2[nH]nc(NC(=O)c3ccc(N4CCN(C)CC4)cc3)c2C1)c1ccccc1 [Compound C03B] |  | pro-oxidative action | 0.62 ± 0.010 µg/mL (≈ 1.31 µM) | 0.34 | 0.21 ± 0.010 µg/mL (≈ 0.443 µM) |  | >6.25 µg/mL | >100 µg/mL |  |  |  |  |  |  |
| O=C(Nc1ccccc1-c1nc2c(C(=O)O)cccc2o1)c1ccccc1 [Compound C06D] | pro-oxidative effect | anti-oxidative effect | >6.25 µg/mL | 0.06 | 0.39 ± 0.010 µg/mL (≈ 1.09 µM) | 0.13 | 3.0 ± 0.001 µg/mL (≈ 8.37 µM) | >100 µg/mL |  |  |  |  | cytocidal effect |  |
| c1ccc(Oc2ccc(-c3cc(C4CCOCC4)n[nH]3)cc2)cc1 [Compound D02A] |  |  |  | 476.19 | >100 µg/mL | 454.55 |  | >100 µg/mL | 0.21 ± 0.01 µg/mL (≈ 0.655 µM) |  | degeneration of the nuclear and kinetoplast DNA continued | 0.22 ± 0.02 µg/mL (≈ 0.687 µM) |  | degeneration in the mitochondria integrity |
| N=C(N)c1ccc(-c2cc(-c3ccccc3)on2)cc1 [Compound E02A] |  | anti-oxidative effect |  | 344.83 | >100 µg/mL | 18.73 |  | >100 µg/mL | 0.29 ± 0.001 µg/mL (≈ 1.1 µM) |  | degenerate after 72 hrs | 5.34 ± 0.01 µg/mL (≈ 20.3 µM) |  | did not show marked morphological changes |
| CC1CCCCN1C(=O)NCCc1coc(-c2ccc(F)cc2)n1 (stereo not drawn) [Compound E05A] |  | anti-oxidative effect | 0.39 ± 0.060 µg/mL (≈ 1.18 µM) | 256.41 | >100 µg/mL | 36.50 | 2.74 ± 0.100 µg/mL (≈ 8.27 µM) | >100 µg/mL |  |  |  |  |  |  |
| CNC(=O)c1nn(C)c2c1C(C)(C)Cc1cnc(Nc3ccc(N4CCN(C)CC4)cc3)nc1-2 [Compound H02B] | pro-oxidative effect | anti-oxidative effect | 0.12 ± 0.150 µg/mL (≈ 0.261 µM) | 0.92 | 0.11 ± 0.010 µg/mL (≈ 0.239 µM) | 0.02 | >6.25 µg/mL | >100 µg/mL |  |  |  |  | cytocidal effect |  |
| CS(=O)(=O)c1ccccc1C(=O)N(Cc1ccccc1)c1ccccc1 [Compound H05A] |  | anti-oxidative effect | 0.78 ± 0.170 µg/mL (≈ 2.13 µM) | 0.19 | 0.15 ± 0.030 µg/mL (≈ 0.41 µM) | 0.60 | 0.25 ± 0.040 µg/mL (≈ 0.684 µM) | >100 µg/mL |  |  |  |  |  |  |
| CCN(CC)CCCCCCNc1cc(OC)cc2c(C)ccnc12 [MMV000063] | anti-oxidative effect |  |  |  |  |  |  |  |  |  |  |  |  |  |
| CCC(=O)Nc1ccccc1C(=O)Nc1ccccn1 [MMV202553] |  | anti-oxidative effect |  |  |  |  |  |  |  |  |  |  |  |  |
| CC(C)(C)OC(=O)N1CCN(c2cc(-c3ccc(Oc4ccccc4)cc3)n[nH]2)CC1 [MMV676057] | pro-oxidative effect | anti-oxidative effect |  |  |  |  |  |  |  |  |  |  |  |  |
| CCOc1ccc2cc(-c3nn(CC4CCN(C)CC4)c4ncnc(N)c34)ccc2c1 [MMV688854] | anti-oxidative effect |  |  |  |  |  |  |  |  |  |  |  |  |  |
| CCc1nn(C)c(C(=O)NCc2ccc(Oc3ccc(C)cc3)cc2)c1Cl [MMV688934] |  | anti-oxidative effect |  |  |  |  |  |  |  |  |  |  |  |  |
| CC(C)(C)C(O)C(Oc1ccc(-c2ccccc2)cc1)n1cncn1 (stereo not drawn) [MMV688942] |  | anti-oxidative effect |  |  |  |  |  |  |  |  |  |  |  |  |
| Nc1ncnc2c1ncn2C[C@@H](O)[C@@H](O)C(=O)O [MMV689255] | anti-oxidative effect |  |  |  |  |  |  |  |  |  |  |  |  |  |
| O=C1O[C@H]([C@@H](O)CO)C(O)=C1O [Vitamin C, reference compound] | anti-oxidative effect | anti-oxidative effect |  |  |  |  |  |  |  |  |  |  |  |  |

Source: article PMC8608343 (PLoS ONE, 2021)
